Consider 3 compounds from publication PMC7970697, “Inhibition and Induction by Poziotinib of Different Rat Cytochrome P450 Enzymes In Vivo and in an In Vitro Cocktail Method” (Frontiers in Pharmacology, 2021).

This data set is described as follows: Pharmacokinetics of probe substrates in rats with or without poziotinib pre-treatment. To be noted: for CL/F: CLz/F; for MRT last: MRT(0–t); for MRT inf: MRT(0–∞); for Vd/F: Vz/F; for half-life: t1/2z. Here is the method:
Samples were analyzed by a UPLC-MS/MS system equipped with a triple quadrupole mass spectrometer (Waters Corp., Milford, MA, United States) and Acquity UPLC BEH C18 column (1.7 μm, 2.1 × 50 mm) at 40°C. The mobile phase consisted of acetonitrile (A) and 0.1% formic acid (B) with a linear gradient elution at 0.4 ml/min for 3 min.
Twelve male Sprague-Dawley rats (230 ± 20 g) were randomly divided into treated and control groups, with 6 in each group. […] The supernatant was mixed with 200 μL of acetonitrile and 20 μL of 0.5 μg/ml diazepam (IS), vortexed for 30 s, centrifuged at 13,000 rpm for 5 min, and the supernatant was injected into the UPLC-MS/MS system for analysis.
Pharmacokinetic parameters were calculated using DAS software (Version 3.2.8). SPSS software (version 16.0; SPSS Inc., Chicago, IL, United States) was used to analyze the significance of differences between the main pharmacokinetic parameters. p < 0.05 was considered statistically significant. GraphPad (version 8.0; GraphPad Software Inc., San Diego, CA, United States) was used to calculate IC50 and plot the plasma concentration-time curves and inhibition plots (type of inhibition, time- and concentration-dependence).

The mark [1] stands for this setting: male, Sprague-Dawley, rat, in vivo, po, Control group: oral probe cocktail only (10 mg/kg; tolbutamide 1 mg/kg), rats, n = 6.
[2] abbreviates: male, Sprague-Dawley, rat, in vivo, po, Treated group: oral probe cocktail (10 mg/kg; tolbutamide 1 mg/kg) after 7 days oral poziotinib 5 mg/kg, rats, n = 6.
Setting [3] is: rats, poziotinib 5 mg/kg 7 days vs probes only.
Where [4] appears, read: male, Sprague-Dawley, rat, in vivo, po, 10 mg/kg, Control group: oral probe cocktail only (10 mg/kg; tolbutamide 1 mg/kg), rats, n = 6.
Where [5] appears, read: male, Sprague-Dawley, rat, in vivo, po, 10 mg/kg, Treated group: oral probe cocktail (10 mg/kg; tolbutamide 1 mg/kg) after 7 days oral poziotinib 5 mg/kg, rats, n = 6.
Where [6] appears, read: male, Sprague-Dawley, rat, in vivo, po, 10 mg/kg.
[7] abbreviates: male, Sprague-Dawley, rat, plasma, po, 10 mg/kg, Control group: oral probe cocktail only (10 mg/kg; tolbutamide 1 mg/kg), rats, n = 6.
Where [8] appears, read: male, Sprague-Dawley, rat, plasma, po, 10 mg/kg, Treated group: oral probe cocktail (10 mg/kg; tolbutamide 1 mg/kg) after 7 days oral poziotinib 5 mg/kg, rats, n = 6.

Turning to `COc1ccc2c(c1)[C@]13CCCC[C@@H]1[C@H](C2)N(C)CC3` [Dextromethorphan], the AUC(0-t) (male, Sprague-Dawley, rat, in vivo, po, AUC(0–t), Control group: oral probe cocktail only (10 mg/kg; tolbutamide 1 mg/kg), rats, n = 6) stood at 575 ± 77.7 ng·h/mL. In addition, the AUC(0-t) (male, Sprague-Dawley, rat, in vivo, po, AUC(0–t), Treated group: oral probe cocktail (10 mg/kg; tolbutamide 1 mg/kg) after 7 days oral poziotinib 5 mg/kg, rats, n = 6) turned out to be 640 ± 197 ng·h/mL. Further, under setting [1], the AUC(0-inf) came out at 586 ± 79.3 ng·h/mL, the CL/F is 289 mL/min/kg, the MRT last was determined as 3.12 ± 0.37 h and the MRT inf is 3.35 ± 0.47 h. Also, under setting [1], the Vd/F was 49 ± 10.7 L/kg and the half-life is 1.98 ± 0.43 h. Moreover, under setting [2], the area under the curve AUC(0-inf) was 722 ± 231 ng·h/mL, the CL/F is 250 mL/min/kg, the MRT last came to 3.54 ± 0.51 h and the MRT inf turned out to be 5.19 ± 2.68 h. Also, under setting [2], the Vd/F amounted to 75.5 ± 33.1 L/kg and the half-life is 3.72 ± 2.09 h. Also, the Cmax (male, Sprague-Dawley, rat, in vivo, po, Cmax, Control group: oral probe cocktail only (10 mg/kg; tolbutamide 1 mg/kg), rats, n = 6) came to 152 ± 57.7 ng/mL. In addition, the Cmax (male, Sprague-Dawley, rat, in vivo, po, Cmax, Treated group: oral probe cocktail (10 mg/kg; tolbutamide 1 mg/kg) after 7 days oral poziotinib 5 mg/kg, rats, n = 6) worked out at 153 ± 42.3 ng/mL. Under “male, Sprague-Dawley, rat, in vivo, po, Tmax, Control group: oral probe cocktail only (10 mg/kg; tolbutamide 1 mg/kg), rats, n = 6”, the Tmax came out at 1.04 ± 0.56 h. Besides, under “male, Sprague-Dawley, rat, in vivo, po, Tmax, Treated group: oral probe cocktail (10 mg/kg; tolbutamide 1 mg/kg) after 7 days oral poziotinib 5 mg/kg, rats, n = 6”, the Tmax is 1.58 ± 0.92 h. Further, under setting [3], the “difference in main pharmacokinetic parameters between treated and control group (in words)” value is given as “no significant differences”.

In the case of `Cc1ncc2n1-c1ccc(Cl)cc1C(c1ccccc1F)=NC2` [Midazolam], the AUC(0-t) (male, Sprague-Dawley, rat, in vivo, po, 10 mg/kg, AUC(0–t), Control group: oral probe cocktail only (10 mg/kg; tolbutamide 1 mg/kg), rats, n = 6) was found to be 1350 ng·h/mL. In addition, the AUC(0-t) (male, Sprague-Dawley, rat, in vivo, po, 10 mg/kg, AUC(0–t), Treated group: oral probe cocktail (10 mg/kg; tolbutamide 1 mg/kg) after 7 days oral poziotinib 5 mg/kg, rats, n = 6) was 1280 ng·h/mL. In addition, under setting [4], the AUC(0-inf) was determined as 1360 ng·h/mL, the CL/F is 128 mL/min/kg, the MRT last is 1.58 ± 0.23 h and the MRT inf was determined as 1.62 ± 0.24 h. In addition, under setting [4], the Vd/F came out at 18.6 ± 5.95 L/kg and the half-life is 1.7 ± 0.55 h. In addition, under setting [5], the AUC(0-inf) was determined as 1310 ng·h/mL, the CL/F is 139 mL/min/kg, the MRT last was determined as 2.01 ± 0.43 h and the MRT inf was 2.44 ± 1.12 h. For the same compound, under setting [5], the Vd/F came to 32.8 ± 20.8 L/kg and the half-life was 2.67 ± 1.39 h. Further, the Cmax (male, Sprague-Dawley, rat, in vivo, po, 10 mg/kg, Cmax, Control group: oral probe cocktail only (10 mg/kg; tolbutamide 1 mg/kg), rats, n = 6) is 868 ± 251 ng/mL. Under “male, Sprague-Dawley, rat, in vivo, po, 10 mg/kg, Cmax, Treated group: oral probe cocktail (10 mg/kg; tolbutamide 1 mg/kg) after 7 days oral poziotinib 5 mg/kg, rats, n = 6”, the Cmax was determined as 582 ± 296 ng/mL. Also, the Tmax (male, Sprague-Dawley, rat, in vivo, po, 10 mg/kg, Tmax, Control group: oral probe cocktail only (10 mg/kg; tolbutamide 1 mg/kg), rats, n = 6) was 0.33 ± 0.13 h. Further, the Tmax (male, Sprague-Dawley, rat, in vivo, po, 10 mg/kg, Tmax, Treated group: oral probe cocktail (10 mg/kg; tolbutamide 1 mg/kg) after 7 days oral poziotinib 5 mg/kg, rats, n = 6) is 0.58 ± 0.34 h. For the same compound, the “difference in main pharmacokinetic parameters between treated and control group (in words)” value under setting [3] is given as “not significant”.

For the compound `CCOc1ccc(NC(C)=O)cc1` [Phenacetin], the Cmax (Control group: oral probe cocktail only (10 mg/kg; tolbutamide 1 mg/kg), rats, n = 6) is reported as 2,869.22 ± 783.32 µg/L. For the same compound, under setting [6], the AUC(0-t) came out at 6320 ng·h/mL, the “MRT(0–t)” value is on record as 1.46 ± 0.22 h, the Tmax is listed as 0.75 ± 0.27 h and the t1/2z worked out at 0.55 ± 0.15 h. For the same compound, under setting [6], the MRT last came to 1.41 ± 0.13 h, the MRT inf is 1.46 ± 0.15 h and the half-life is 0.8 ± 0.12 h. For the setting “male, Sprague-Dawley, rat, in vivo, po, 10 mg/kg, Tmax”, the Tmax is 0.54 ± 0.25 h. Besides, the AUC(0-t) (male, Sprague-Dawley, rat, plasma, po, 10 mg/kg) is 2770 ng·h/mL. Further, under setting [7], the CL/F is 30.7 mL/min/kg and the Vd/F was 1.57 ± 0.9 L/kg. Further, under setting [8], the CL/F is 66.5 mL/min/kg and the Vd/F worked out at 4.77 ± 2.26 L/kg. For the same compound, the Cmax (male, Sprague-Dawley, rat, plasma, po, 10 mg/kg, Cmax, Treated group: oral probe cocktail (10 mg/kg; tolbutamide 1 mg/kg) after 7 days oral poziotinib 5 mg/kg, rats, n = 6) amounted to 1490 ng/mL. For the same compound, under setting [3], the “AUC (0–t) reduced by, treated vs control group” value was 56.08%; the “AUC (0–∞) reduced by, treated vs control group” value is reported as 55.81%; the “CLz/F increased by, treated vs control group” value was 116.85%; the “Cmax reduced by, treated vs control group” value was 48.06%. Further, under setting [3], the “Vz/F increased by, treated vs control group” value was 203.82% and the “t1/2 increased by, treated vs control group” value was 45.45%.

For orientation: AUC(0-t) means exposure summed from dosing to a finite time, without extrapolation to infinity. In general, AUC(0-inf) refers to total exposure, with the tail of the curve extrapolated. What is called CL/F is the apparent clearance, not corrected for the fraction that reaches the circulation. As usually defined, the Cmax is the peak of the concentration-time curve. As usually defined, the MRT last is a mean duration of stay, worked out from the concentration-time curve. By MRT inf is commonly meant the average time that molecules of a dose stay in the body. Usually Tmax stands for the time from dosing to the highest level. Broadly, the Vd/F is the volume of distribution divided by bioavailability. A word on the half-life: it is how long it takes for the measured level to halve.
